Laboratory results from patent US20250354192A1, “METHODS FOR QUANTIFYING LIVE BACTERIA” (priority 2022, published 2025).

System: innate live bacterial populations in whole carcass rinsates
Assay: 3-step metabolic labeling of whole carcass rinsates with or without EDA, PIPER
Assay type: cell-based
Settings: two whole carcass rinsate samples
Description: Experimental Detail: Whole carcass rinsate samples were prepared as per FSIS USDA guidance using two separate whole chickens from the grocery store obtained prior to “use by” date. Sodium polyanethol sulfonate was added to 0.05% to limit blood clotting. Prior to 3-step metabolic labeling, an aliquot from each rinsate was removed for serial dilution and plating on APC petrifilm (3M, Saint Paul, MN) and incubated as per manufacturer instructions to evaluate the number of total viable bacteria by the “gold standard” method. 1 mL rinsate aliquots were used for incubation with, or without EDA, as a control for non-specific staining with the fluorophore. The 1st step of labeling was carried out by adding 5 μg/mL chloramphenicol and 1 mM EDA, where indicated, followed by 90 min incubation at 37° C. […]
FIG. 25 depicts how 3-step metabolic labeling detects innate live bacterial populations in whole carcass rinsates. FIG. 25A depicts PIPER images of innate populations of live bacteria detected by 3-step metabolic labeling in two separate whole carcass rinsate samples. […] To convert the PIPER counts into the number of live bacteria per swab, the values were corrected for the volume of the viewing window relative to the total sample volume loaded into the cartridge lane, and the fraction of the total sample volume analyzed.

## C#CC[C@@H](N)C(=O)O [EDA, D-propargylglycine]
  signal on omitting EDA from the 1st step of labeling: dramatic reduction of the signal
